Tested on: Carnation
Test: Growth of carnation in greenhouses covered with the film
Format: in vivo
Details: 1% compound 100 in Film A versus Film B
Description: A three layer LDPE/EVA industrial film is prepared by blow molding having the following structure: 200μ thickness, 50μ EVA 5%, 100μ EVA 14% and 50μ EVA 5%. […] Agricultural Tests Two cultivars, namely ‘Jack’ and ‘Samuela’, have been grown under two greenhouses one with film A and the other with film B. The cultivation started on the 18 Sep. 2001 and harvesting started on the 3, Oct. 2001. The cultivation conditions are the standard conditions used in the region.

Compound: CN(C)c1ccc(C=C2C(=O)NC(=O)NC2=O)cc1 [compound 100, condensation product of 4-dimethylaminobenzaldehyde and barbituric acid]
- effect on the production and quality of carnation: evident

— patent US7037962B2, “Composition and process for enhancing bio-mass production in greenhouses” (Ciba Specialty Chemicals Corp., priority 2002, dated 2006)
